Results on two molecules are retold here after patent publication US8629100B2, “Method of inhibiting clostridium difficile by administration of oritavancin” (The Medicines Company, priority 2007, dated 2014).

As a reminder, the MIC90 is the lowest concentration that inhibits either 90% of growth or 90% of the strains tested, depending on the study. Broadly, the MIC is the least concentration at which growth counts as inhibited.

What all share (type): cell-based
Test [1] concerns C. difficile vegetative cultures and spores. Description: Spiral gradient endpoint analysis MIC. As to the method: C. difficile PCR ribotypes 001, 106 and 027 were inoculated onto Columbia blood agar and incubated anaerobically (37° C.) for 10 d. Growth was harvested into sterile saline and alcohol shocked in an equal volume of 100% ethanol for 1 h. Alcohol-shocked spore suspensions were mixed by vortexing and sonicated for 5 minutes at room temperature. C. difficile phase-bright (non-germinated) spores were separated from phase-dark (germinated) spores and cellular debris by density gradient centrifugation (4000 rpm 15 minutes) following layering onto 50% (v/v in phosphate buffered saline) Urografin 370 (Schering, Germany). The density gradient centrifugation step was performed twice. Pellets of purified spores were re-suspended in sterile saline (1 mL per 10 Columbia blood agar plates harvested). Percentage phase-bright spores, phase-dark spores and vegetative cells were recorded using phase-contrast microscopy (×100 magnification).
A spiral plater (WASP2, Don Whitley Scientific, UK) was used to apply a logarithmic antibiotic gradient onto the surface of pre-dried (37° C. 20 minutes) Brazier's agar (pH 7). Agar with logarithmic antimicrobial gradients applied to their surface remained at room temperature for 1 h to allow the antimicrobial agent to adsorb into the agar. C. difficile vegetative cultures and spores (˜10^7 cfu/mL) were inoculated onto the agar surface (FIG. 1) with a sterile cotton swab and incubated anaerobically (37° C., 24 h). D-values were measured (in mm) and converted to MICs (Paton, J. H.1990. Int J Exp Clin Chemother. 9, 31-38).

In test [2] the test system is genotypically distinct C. difficile (n = 33). Description: Agar incorporation MIC. Particulars: for MIC range / MIC90: AI; for MIC90 / MIC: Clostridioides difficile. The source says: Thirty-three genotypically distinct (by PCR ribotyping) C. difficile isolates were selected from a library of strains at the Leeds General Infirmary (Leeds, UK). Representative isolates of epidemic C. difficile PCR ribotypes 001, 106 and 027 were included in the panel. Control isolates of Staphylococcus aureus ATCC 29213, Enterococcus faecalis ATCC 29212 and Bacteroides fragilis ATCC 25285 were included in all MIC determinations to ensure procedure accuracy.
Agar incorporation MICs were determined based on the method of Freeman and Wilcox (J Antimicrob Chemother 2001; 47: 244-6). Briefly, bacteria were cultured in Schaedler's anaerobic broth (Oxoid, Basingstoke, UK) at 37° C. for 24 h in an anaerobic cabinet (Don Whitley Scientific, Shipley). […] Oritavancin was prepared in 0.002% P80. All antimicrobial solutions were sterilized by filtration through 0.22 um syringe filters. […] Wilkins Chalgren agar (Oxoid) incorporating doubling dilutions of antimicrobial agents (0.03-16 mg/L) was prepared with and without 0.002% P80 and with and without 2% lysed horse blood (E&O Labs, Bonneybridge, UK). All media and diluents were pre-reduced overnight in the anaerobic cabinet. Bacterial cultures were diluted in sterile saline and inoculated onto the surface of agar incorporation agar plates using a multipoint inoculator (˜10^4 cfu). Agar incorporation plates were incubated anaerobically for 48 h. MIC endpoints were read as the lowest concentration of antimicrobial agent where there is no apparent growth (disregarding a visible haze of growth or a single colony).

Test [3] deals with Staphylococcus aureus NCTC 6571. Description: Growth on antibiotic-exposed cellulose acetate filters (Example 3C). Particulars: overnight culture. The protocol:
One mL solutions (containing no C. difficile spores) were processed as in Experiment 2B and filters placed onto Braziers CCEY agar. Onto the filters were inoculated 2×20 μL of:
c) Staphylococcus aureus NCTC 6571 (Oxford strain, overnight culture).
Growth/no growth was recorded following anaerobic incubation.

Test [4] has as its system genotypically distinct C. difficile (n = 33). Description: Broth macrodilution MIC. The conditions noted are these: for MIC range / MIC90 / MIC: BM, broth macrodilution; for MIC90 / MIC: Clostridioides difficile; for MIC: read-out: GEO MIC.
Where [5] appears, read: read-out: GEO MIC, AI, P80 no LHB.
Setting [6] is: read-out: GEO MIC, AI, P80 with LHB.
The mark [7] stands for this setting: read-out: GEO MIC, AI, no P80 no LHB.
[8] abbreviates: read-out: GEO MIC, AI, no P80 with LHB.

In brackets after ≈: the same amount, converted by molar mass.

`CN[C@H](CC(C)C)C(=O)N[C@H]1C(=O)N[C@@H](CC(N)=O)C(=O)N[C@H]2C(=O)N[C@H]3C(=O)N[C@H](C(=O)N[C@H](C(=O)O)c4cc(O)cc(O)c4-c4cc3ccc4O)[C@H](O)c3ccc(c(Cl)c3)Oc3cc2cc(c3O[C@@H]2O[C@H](CO)[C@@H](O)[C@H](O)[C@H]2O[C@H]2C[C@](C)(N)[C@H](O)[C@H](C)O2)Oc2ccc(cc2Cl)[C@H]1O` [vancomycin]: the “MICs for C. difficile vegetative cells versus spores” value in test [1] (data not shown) was “did not differ substantially”. Besides, the MIC range fell in the range of 1 to 4 µg/mL in test [2] (P80 no LHB); 0.5 to 2 µg/mL in test [2] (P80 with LHB); 0.5 to 2 µg/mL in test [2] (no P80 no LHB); 1 to 4 µg/mL in test [2] (no P80 with LHB); 0.5 to 2 µg/mL in test [4]. Moreover, the MIC90 was determined as 2 µg/mL (≈ 1.38 µM) in test [2] (P80 no LHB); 1 µg/mL (≈ 0.69 µM) in test [2] (P80 with LHB); 2 µg/mL (≈ 1.38 µM) in test [2] (no P80 no LHB); 2 µg/mL (≈ 1.38 µM) in test [2] (no P80 with LHB); 2 µg/mL (≈ 1.38 µM) in test [4]. Besides, the minimal inhibitory concentration (MIC) in test [2] (setting [5]) came out at 1.3 µg/mL (≈ 0.897 µM); in test [2] (setting [6]), 1 µg/mL (≈ 0.69 µM); in test [2] (setting [7]), 1.51 µg/mL (≈ 1.04 µM); in test [2] (setting [8]), 1.35 µg/mL (≈ 0.932 µM); in test [4] it was 1.58 µg/mL (≈ 1.09 µM). The “Growth of S. aureus NCTC 6571 on filters through which antibiotic had been filtered” value in test [3] was “grew”.
Regarding `CN[C@H](CC(C)C)C(=O)N[C@H]1C(=O)N[C@@H](CC(N)=O)C(=O)N[C@H]2C(=O)N[C@H]3C(=O)N[C@H](C(=O)N[C@H](C(=O)O)c4cc(O)cc(O)c4-c4cc3ccc4O)[C@H](O[C@H]3C[C@](C)(N)[C@@H](O)[C@H](C)O3)c3ccc(c(Cl)c3)Oc3cc2cc(c3O[C@@H]2O[C@H](CO)[C@@H](O)[C@H](O)[C@H]2O[C@H]2C[C@](C)(NCc3ccc(-c4ccc(Cl)cc4)cc3)[C@@H](O)[C@H](C)O2)Oc2ccc(cc2Cl)[C@H]1O` [oritavancin, N-(4-(4-chlorophenyl)benzyl)A82846B], the “MICs against C. difficile spores lower than against vegetative cells” value in test [1] (Brazier's agar pH 7, 24 h) is given as 5-13 fold. Further, the MIC range in test [2] (P80 no LHB) fell in the range of 2 to 4 µg/mL; in test [2] (P80 with LHB), 1 to 4 µg/mL; in test [2] (no P80 no LHB) it was 2 to 4 µg/mL; in test [2] (no P80 with LHB), 0.5 to 4 µg/mL; in test [4], 0.06 to 1 µg/mL. The MIC90 in test [2] (P80 no LHB) was determined as 4 µg/mL (≈ 2.23 µM); in test [2] (P80 with LHB), 4 µg/mL (≈ 2.23 µM); in test [2] (no P80 no LHB) it was 4 µg/mL (≈ 2.23 µM); in test [2] (no P80 with LHB) it was 2 µg/mL (≈ 1.12 µM); in test [4] it was 1 µg/mL (≈ 0.558 µM). Also, the minimal inhibitory concentration (MIC) came out at 2.7 µg/mL (≈ 1.51 µM) in test [2] (setting [5]); 1.58 µg/mL (≈ 0.881 µM) in test [2] (setting [6]); 2.33 µg/mL (≈ 1.3 µM) in test [2] (setting [7]); 1.72 µg/mL (≈ 0.959 µM) in test [2] (setting [8]); 0.31 µg/mL (≈ 0.173 µM) in test [4]. In test [3], the “Growth of S. aureus NCTC 6571 on filters through which antibiotic had been filtered” value is listed as “grew”. For the same molecule, the “Broth macrodilution MICs lower than agar incorporation MICs” value in test [4] is reported as 2- to 4 fold. For the same molecule, the “Broth macrodilution geometric mean MICs lower than those for metronidazole” value in test [4] was approximately 2 fold. The “Broth macrodilution geometric mean MICs lower than those for vancomycin” value in test [4] is reported as approximately 5 fold. The “Tested isolates more susceptible (≧2 doubling dilutions) than to vancomycin” value in test [4] amounted to 76%.
